The source of these data is ChEMBL document CHEMBL4052696, “Varic acid analogues from fungus as PTP1B inhibitors: Biological evaluation and structure-activity relationships” (Bioorg Med Chem Lett, 2017).

Data set [1] deals with T1, Tyrosine-protein phosphatase non-receptor type 2 (Homo sapiens, UniProt P17706).
T1 sequence (P17706 whole entry): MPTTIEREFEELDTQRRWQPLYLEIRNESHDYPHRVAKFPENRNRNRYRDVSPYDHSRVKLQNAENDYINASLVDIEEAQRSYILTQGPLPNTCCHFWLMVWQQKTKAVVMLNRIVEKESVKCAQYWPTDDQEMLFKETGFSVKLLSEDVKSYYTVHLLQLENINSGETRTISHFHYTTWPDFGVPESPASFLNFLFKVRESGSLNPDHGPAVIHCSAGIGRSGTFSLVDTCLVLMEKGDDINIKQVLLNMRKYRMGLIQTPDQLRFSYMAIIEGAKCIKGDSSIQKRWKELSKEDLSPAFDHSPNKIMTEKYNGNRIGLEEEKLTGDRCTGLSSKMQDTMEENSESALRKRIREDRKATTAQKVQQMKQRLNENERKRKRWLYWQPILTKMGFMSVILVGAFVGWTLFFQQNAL
Description: Inhibition of TCPTP (unknown origin) using p-nitrophenyl phosphate substrate incubated for 30 mins.

In data set [2] the target is Receptor-type tyrosine-protein phosphatase F (Homo sapiens, UniProt P10586). The data set can be described thus: Inhibition of PTPLAR (unknown origin) using p-nitrophenyl phosphate substrate incubated for 30 mins.
Data set [3] has as its target T2, Tyrosine-protein phosphatase non-receptor type 11 (Homo sapiens, UniProt Q06124).
T2 sequence (Q06124 whole entry): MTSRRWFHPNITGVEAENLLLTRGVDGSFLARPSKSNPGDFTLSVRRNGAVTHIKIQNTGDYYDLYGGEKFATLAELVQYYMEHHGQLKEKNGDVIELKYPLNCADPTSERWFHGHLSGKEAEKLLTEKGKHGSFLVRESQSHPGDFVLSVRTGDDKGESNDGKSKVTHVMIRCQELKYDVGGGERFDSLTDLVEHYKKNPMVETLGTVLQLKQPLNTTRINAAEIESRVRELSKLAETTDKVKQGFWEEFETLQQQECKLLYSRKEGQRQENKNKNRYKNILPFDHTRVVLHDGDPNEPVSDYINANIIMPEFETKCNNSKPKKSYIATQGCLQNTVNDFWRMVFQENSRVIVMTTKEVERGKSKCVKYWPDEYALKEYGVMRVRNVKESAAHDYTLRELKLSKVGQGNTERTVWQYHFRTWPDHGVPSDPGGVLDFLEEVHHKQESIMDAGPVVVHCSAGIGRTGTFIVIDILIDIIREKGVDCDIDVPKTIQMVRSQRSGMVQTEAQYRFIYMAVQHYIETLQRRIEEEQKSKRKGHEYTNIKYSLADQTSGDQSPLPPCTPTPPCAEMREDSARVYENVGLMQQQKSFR
Description: Inhibition of SHP2 (unknown origin) using p-nitrophenyl phosphate substrate incubated for 30 mins.

Data set [4] concerns the target T3, Tyrosine-protein phosphatase non-receptor type 1 (Homo sapiens, UniProt P18031).
T3 sequence (P18031 whole entry): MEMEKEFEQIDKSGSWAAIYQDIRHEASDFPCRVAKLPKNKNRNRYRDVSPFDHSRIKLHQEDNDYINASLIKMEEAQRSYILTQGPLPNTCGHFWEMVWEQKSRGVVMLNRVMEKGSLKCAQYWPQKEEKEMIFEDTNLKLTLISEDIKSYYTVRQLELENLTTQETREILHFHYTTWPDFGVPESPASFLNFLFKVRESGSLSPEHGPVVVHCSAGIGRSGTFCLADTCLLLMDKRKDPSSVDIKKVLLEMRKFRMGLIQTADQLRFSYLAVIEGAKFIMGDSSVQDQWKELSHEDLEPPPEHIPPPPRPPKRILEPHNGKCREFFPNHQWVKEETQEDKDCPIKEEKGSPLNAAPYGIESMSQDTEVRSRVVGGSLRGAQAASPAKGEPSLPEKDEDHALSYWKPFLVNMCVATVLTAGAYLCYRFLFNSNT
The data set can be described thus: Inhibition of PTP1B (unknown origin) using p-nitrophenyl phosphate substrate incubated for 30 mins.

The subject of data set [5] is Rattus norvegicus. Description: Toxicity in type 2 diabetic Wistar rat assessed as induction of hypoglycemia at 10 mg/kg, ip dosed 30 mins before insulin injection and measured 30 mins post insulin injection by glucose-oxidase assay. It is filed as organism-based. The conditions noted are these: in vivo, 0.5 h.
In data set [6] the test system is Rattus norvegicus. The data set can be described thus: Toxicity in normal Wistar rat assessed as induction of hypoglycemia at 10 mg/kg, ip dosed 30 mins before insulin injection and measured 30 mins post insulin injection by glucose-oxidase assay. In kind it is organism-based. The conditions noted are these: in vivo, 0.5 h.

In general, IC50 refers to the midpoint of a concentration-inhibition curve.

Sequence of Receptor-type tyrosine-protein phosphatase F (P10586 whole entry): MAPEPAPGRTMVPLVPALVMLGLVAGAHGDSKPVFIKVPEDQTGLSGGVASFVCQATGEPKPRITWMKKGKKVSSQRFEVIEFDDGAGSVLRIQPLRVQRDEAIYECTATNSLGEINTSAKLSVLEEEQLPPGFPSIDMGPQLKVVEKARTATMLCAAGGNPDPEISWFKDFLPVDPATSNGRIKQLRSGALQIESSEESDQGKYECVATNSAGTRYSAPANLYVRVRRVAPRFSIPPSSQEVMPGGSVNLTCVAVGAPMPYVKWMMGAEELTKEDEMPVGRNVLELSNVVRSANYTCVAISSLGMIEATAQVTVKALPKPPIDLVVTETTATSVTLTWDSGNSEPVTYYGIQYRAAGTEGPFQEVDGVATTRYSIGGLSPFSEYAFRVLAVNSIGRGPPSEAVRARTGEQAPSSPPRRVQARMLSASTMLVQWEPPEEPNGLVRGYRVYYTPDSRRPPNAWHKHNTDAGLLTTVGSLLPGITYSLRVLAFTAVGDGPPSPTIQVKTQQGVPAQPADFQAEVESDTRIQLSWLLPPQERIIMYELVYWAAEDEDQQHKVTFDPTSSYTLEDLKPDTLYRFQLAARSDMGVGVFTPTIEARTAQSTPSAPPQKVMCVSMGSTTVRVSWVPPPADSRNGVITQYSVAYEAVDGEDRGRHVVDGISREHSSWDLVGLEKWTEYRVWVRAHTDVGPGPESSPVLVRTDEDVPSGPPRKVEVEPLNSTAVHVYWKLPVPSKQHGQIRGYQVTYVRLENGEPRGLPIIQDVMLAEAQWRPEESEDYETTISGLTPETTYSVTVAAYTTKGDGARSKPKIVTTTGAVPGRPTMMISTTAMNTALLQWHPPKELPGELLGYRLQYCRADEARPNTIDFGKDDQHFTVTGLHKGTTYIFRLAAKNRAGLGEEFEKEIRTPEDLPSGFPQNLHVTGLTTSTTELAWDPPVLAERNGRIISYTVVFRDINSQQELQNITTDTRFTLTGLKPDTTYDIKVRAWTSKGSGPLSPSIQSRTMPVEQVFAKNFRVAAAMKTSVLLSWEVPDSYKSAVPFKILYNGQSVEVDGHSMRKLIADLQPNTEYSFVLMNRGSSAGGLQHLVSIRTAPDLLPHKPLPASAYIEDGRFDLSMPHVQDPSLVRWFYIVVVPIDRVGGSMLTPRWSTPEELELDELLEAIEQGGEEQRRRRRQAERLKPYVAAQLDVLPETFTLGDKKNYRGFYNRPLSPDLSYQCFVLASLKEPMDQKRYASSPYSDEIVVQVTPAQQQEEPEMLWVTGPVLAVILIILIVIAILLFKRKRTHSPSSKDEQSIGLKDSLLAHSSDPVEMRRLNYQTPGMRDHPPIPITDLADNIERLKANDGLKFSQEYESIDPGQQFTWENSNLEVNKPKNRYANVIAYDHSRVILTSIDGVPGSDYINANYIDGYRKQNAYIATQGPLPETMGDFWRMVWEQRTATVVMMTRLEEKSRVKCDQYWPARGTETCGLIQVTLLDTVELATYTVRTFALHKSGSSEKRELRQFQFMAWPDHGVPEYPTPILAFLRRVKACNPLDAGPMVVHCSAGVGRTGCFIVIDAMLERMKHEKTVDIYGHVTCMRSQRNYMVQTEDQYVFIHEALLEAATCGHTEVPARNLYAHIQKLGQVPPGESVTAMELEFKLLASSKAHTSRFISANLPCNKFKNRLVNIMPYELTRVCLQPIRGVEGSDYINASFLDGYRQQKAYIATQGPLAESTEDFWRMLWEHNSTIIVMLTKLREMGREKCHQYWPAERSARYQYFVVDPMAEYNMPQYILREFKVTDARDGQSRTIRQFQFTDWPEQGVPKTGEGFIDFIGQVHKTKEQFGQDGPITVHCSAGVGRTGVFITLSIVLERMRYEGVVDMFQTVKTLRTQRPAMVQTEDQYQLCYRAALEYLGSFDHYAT

As for `CCCc1cc(OC(=O)c2c(O)cc(O)cc2CCC)cc(O)c1C(=O)O`, the IC50 was above 20 µM in data set [1], above 20 µM in data set [2], above 20 µM in data set [3] and 0.51 µM in data set [4].
For the molecule `CCCc1cc(O)cc(OC(=O)c2c(O)cc(O)cc2CCC)c1`, the IC50 in data set [1] is above 20 µM; in data set [2], above 20 µM; in data set [3], 15 µM; in data set [4], 0.72 µM.
Take `CCCc1cc(OC(=O)c2c(O)cc(OC(=O)c3c(O)cc(O)cc3CCC)cc2CCC)cc(O)c1C(=O)O`: the IC50 in data set [1] is 17.7 µM; in data set [2], above 20 µM; in data set [3], 2.73 µM; in data set [4], 0.17 µM. The Activity entry in the data set with Rattus norvegicus [5] and in the data set on Rattus norvegicus [6] was “Non-Toxic” throughout.
For the molecule `CCCc1cc(O)cc(O)c1C(=O)O`, the IC50 in data set [1] was above 20 µM; in data set [2], above 20 µM; in data set [3], 12.6 µM; in data set [4], 1.58 µM.
On to `CCCc1cc(OC)cc(OC)c1C(=O)O`, for which the IC50 in data set [1], in data set [2], in data set [3] and in data set [4] was above 20 µM throughout.
For `CCC/C=C/C=C/CCc1cc(O)cc(O)c1C(=O)O`, the half-inhibitory concentration (IC50) is 4.74 µM in data set [1], above 20 µM in data set [2], 0.18 µM in data set [3] and 4.27 µM in data set [4].
